From US20220000106A1, “HERBICIDAL COMPOSITIONS AND RELATED METHODS” (BELCHIM Crop Protection USA LLC, priority 2020, published 2022)

Test system: various established weeds including Carolina False Dandelion, Hop Clover, White Clover, Annual Sedge, and Smooth Crabgrass
Assay: Field study of post-emergence weed control (overall percent weed control of combined weed species) in established Kentucky Tall Fescue
Format: in vivo
Details: for efficacy of all weeds: eight days after treatment
Protocol: Field studies were conducted on a mixed stand of established Kentucky Tall Fescue containing various established weeds including but not limited to Carolina False Dandelion, Hop Clover, White Clover, Annual Sedge, and Smooth Crabgrass in Selma, N.C. The trial location was mowed weekly at a mowing height of three inches. The distribution of weeds was uniform throughout the study.
Individual treatment plots were applied on a 1×3 meter squared plot area. The experimental design was a randomized complete block with three replications. The applications were made with a carbon dioxide backpack sprayer equipped with 11003 nozzles with a spray pressure of 40 psi calibrated to deliver approximately 40 gallons per acre spray volume. All applications were applied on a single day. The wind speed was less than 10 mph at time of application.
Data were collected at 2, 4, 8, 13, 23 and 30 days after application of treatments, respectively. Data were collected as an estimate of overall percent weed control (efficacy) of combined weed species taking into consideration necrosis, chlorosis, and stunting of each weed species. The data were analyzed in ARM using the ANOVA and preforming the Duncan's New MRT test at P=0.05 (indicated by “a,” “b,” “c,”, etc.).
Glufosinate used in this trial was Surmise (2.34 lb/gal.) marketed by Albaugh LLC. Pelargonic Acid used in this trial was Beloukha Garden Herbicide (4.21 lb/gal.) marketed by Belchim Crop Protection USA.
The total percent weed control was calculated by comparing the individual treated plots and assessing individual weeds.

**Q.** `CP(=O)(O)CCC(N)C(=O)O` (stereo not shown) [Glufosinate, 2-amino-4-[hydroxy(methyl)phosphoryl]butanoic acid] was tested. Which “Percent Control” value (0.5 fluid oz/gal, 2 days after treatment) did it give?
**A.** 0.0b %

**Q.** What about the “Percent Control” value (0.5 fluid oz/gal, 4 days after treatment) of the same compound?
**A.** 20.0c %

**Q.** What about the “Percent Control” value (0.5 fluid oz/gal, 8 days after treatment) of the same compound?
**A.** 85.0ab %

**Q.** What about the “Percent Control” value (0.5 fluid oz/gal, 13 days after treatment) of the same compound?
**A.** 90.0b %

**Q.** And the “Percent Control” value (0.5 fluid oz/gal, 23 days after treatment)?
**A.** 85.2b %

**Q.** What about the “Percent Control” value (0.5 fluid oz/gal, 30 days after treatment) of the same compound?
**A.** 83.6b %

**Q.** And the “Percent Control” value (1.0 fluid oz/gal, 2 days after treatment)?
**A.** 0.0b %

**Q.** And the “Percent Control” value (1.0 fluid oz/gal, 4 days after treatment)?
**A.** 15.0cd %

**Q.** What about the “Percent Control” value (1.0 fluid oz/gal, 8 days after treatment) of the same compound?
**A.** 91.0a %

**Q.** What about the “Percent Control” value (1.0 fluid oz/gal, 13 days after treatment) of the same compound?
**A.** 90.7b %

**Q.** What about the “Percent Control” value (1.0 fluid oz/gal, 23 days after treatment) of the same compound?
**A.** 90.4b %

**Q.** What about the “Percent Control” value (1.0 fluid oz/gal, 30 days after treatment) of the same compound?
**A.** 95.0a %

**Q.** What about the “Percent Control” value (2.0 fluid oz/gal, 2 days after treatment) of the same compound?
**A.** 0.0b %

**Q.** And the “Percent Control” value (2.0 fluid oz/gal, 4 days after treatment)?
**A.** 15.0cd %

**Q.** And the “Percent Control” value (2.0 fluid oz/gal, 8 days after treatment)?
**A.** 94.3a %

**Q.** And the “Percent Control” value (2.0 fluid oz/gal, 13 days after treatment)?
**A.** 98.0a %

**Q.** What about the “Percent Control” value (2.0 fluid oz/gal, 23 days after treatment) of the same compound?
**A.** 99.1a %

**Q.** And the “Percent Control” value (2.0 fluid oz/gal, 30 days after treatment)?
**A.** 97.1a %

**Q.** And the “efficacy of all weeds” value (all glufosinate treatments at all dose rates)?
**A.** 85 to 94%

**Q.** What about the “control of all weeds (efficacy)” value (glufosinate alone, all dose rates, 23 days after treatment) of the same compound?
**A.** 85 to 99%

**Q.** `CCCCCCCCC(=O)O` [Pelargonic Acid, nonanoic acid] was tested. Which “Percent Control” value (3.2 fluid oz/gal, 2 days after treatment) did it give?
**A.** 6.7b %

**Q.** And the “Percent Control” value (3.2 fluid oz/gal, 4 days after treatment)?
**A.** 20.0c %

**Q.** What about the “Percent Control” value (3.2 fluid oz/gal, 8 days after treatment) of the same compound?
**A.** 40.0c %

**Q.** What about the “Percent Control” value (3.2 fluid oz/gal, 13 days after treatment) of the same compound?
**A.** 22.2d %

**Q.** What about the “Percent Control” value (3.2 fluid oz/gal, 23 days after treatment) of the same compound?
**A.** 20.0d %

**Q.** And the “Percent Control” value (3.2 fluid oz/gal, 30 days after treatment)?
**A.** 20.0c %

**Q.** And the “Percent Control” value (6.4 fluid oz/gal, 2 days after treatment)?
**A.** 40.0a %

**Q.** And the “Percent Control” value (6.4 fluid oz/gal, 2 days after treatment, listed as pelargonic acid)?
**A.** 40%

**Q.** What about the “Percent Control” value (6.4 fluid oz/gal, 4 days after treatment) of the same compound?
**A.** 50.0b %

**Q.** What about the “Percent Control” value (6.4 fluid oz/gal, 8 days after treatment) of the same compound?
**A.** 73.3b %

**Q.** What about the “Percent Control” value (6.4 fluid oz/gal, 13 days after treatment) of the same compound?
**A.** 66.7c %

**Q.** What about the “Percent Control” value (6.4 fluid oz/gal, 23 days after treatment) of the same compound?
**A.** 40.0c %

**Q.** What about the “Percent Control” value (6.4 fluid oz/gal, 30 days after treatment) of the same compound?
**A.** 23.2c %

**Q.** What about the “efficacy of all weeds” value (pelargonic acid alone, both dose rates) of the same compound?
**A.** 40% to 73
